Here are results for eight compounds from US10167272B2, “Muscarinic agonists” (Heptares Therapeutics Limited, priority 2015, dated 2019).

Some results are limits rather than exact numbers.

What is called Emax is the size of the effect at its maximum, as opposed to the concentration needed.

One assay concerns rats. Description: d-amphetamine-induced hyperactivity in rats. It is filed as in vivo, rat. Particulars: positive control dose, previously observed. The protocol:
Effect of a Novel Test Compound and Xanomeline on d-Amphetamine-Induced Hyperactivity in Rats
The aim of the study is to examine the effect of a novel test compound on d-amphetamine induced hyperactivity in rats. Schizophrenia is a complex multifactorial disease that cannot be fully represented by a single experimental procedure. Antipsychotic-like behaviour was assessed in rats by the inhibition of hyperactivity (or hyperlocomotion) elicited by d-amphetamine. This procedure is sensitive to clinically relevant dopamine receptor antagonists and is therefore considered suitable for comparing muscarinic agonists that influence dopaminergic signalling. […] Statistical analysis typically involved three-way analysis of covariance or robust regression with treatment, day and rack as factors and activity during the 30 minutes prior to treatment as a covariate, followed by appropriate multiple comparison tests. A P value of <0.05 was considered statistically significant and is marked accordingly in all subsequent figures.

Assay [1] deals with T1, human muscarinic M1 receptor (Homo sapiens, UniProt P11229).
T1 sequence (P11229 1-460): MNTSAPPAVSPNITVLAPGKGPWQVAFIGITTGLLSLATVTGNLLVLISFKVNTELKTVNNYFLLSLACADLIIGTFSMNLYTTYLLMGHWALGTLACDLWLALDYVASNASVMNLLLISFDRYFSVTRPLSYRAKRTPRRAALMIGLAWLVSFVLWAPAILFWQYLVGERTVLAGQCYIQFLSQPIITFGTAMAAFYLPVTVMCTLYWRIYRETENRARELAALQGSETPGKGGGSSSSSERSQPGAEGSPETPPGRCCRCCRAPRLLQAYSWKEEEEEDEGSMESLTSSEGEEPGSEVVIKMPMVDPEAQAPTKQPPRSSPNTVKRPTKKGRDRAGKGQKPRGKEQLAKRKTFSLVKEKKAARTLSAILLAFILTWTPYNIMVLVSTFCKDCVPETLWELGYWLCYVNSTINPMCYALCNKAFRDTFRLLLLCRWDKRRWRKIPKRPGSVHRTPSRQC
Description: Alphascreen Surefire phospho-ERK1/2 functional assay, M1. It is filed as cell-based. Particulars: phospho-ERK1/2; for EC50 / % Emax cf. ACh (M1): CHO cells stably expressing human M1; for EC50: read-out: pEC50 M1 (converted); for Emax: CHO, read-out: % Emax cf. ACh (M1), CHO cells stably expressing human M1; for Emax / % Emax cf. ACh (M1): relative to ACh. The method in brief:
(§1)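 CHO cells stably expressing human M1, M2 or M3 receptor, serum-starved overnight, were stimulated with agonist for 5 min at 37 °C. Cells were then lysed and ERK1/2 phosphorylation detected by AlphaScreen SureFire.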
A general note: Bead proximity is the source of the signal in Alpha formats.

Assay [2] addresses T2, human muscarinic M2 receptor (Homo sapiens, UniProt P08172).
T2 sequence (P08172 1-466): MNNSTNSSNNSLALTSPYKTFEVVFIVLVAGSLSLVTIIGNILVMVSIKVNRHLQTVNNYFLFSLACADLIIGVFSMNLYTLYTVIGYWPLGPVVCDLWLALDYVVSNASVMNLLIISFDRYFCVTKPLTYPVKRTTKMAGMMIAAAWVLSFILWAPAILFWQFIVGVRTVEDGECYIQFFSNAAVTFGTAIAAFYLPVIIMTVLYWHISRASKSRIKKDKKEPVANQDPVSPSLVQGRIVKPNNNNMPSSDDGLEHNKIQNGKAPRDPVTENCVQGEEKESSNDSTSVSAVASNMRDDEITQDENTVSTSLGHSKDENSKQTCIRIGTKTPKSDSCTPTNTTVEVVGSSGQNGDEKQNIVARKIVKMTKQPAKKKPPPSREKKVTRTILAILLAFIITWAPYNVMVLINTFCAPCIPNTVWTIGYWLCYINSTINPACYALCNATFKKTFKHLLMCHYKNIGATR
Description: Alphascreen Surefire phospho-ERK1/2 functional assay, M2. It is filed as cell-based. The conditions noted are these: for EC50: CHO cells stably expressing human M2, read-out: pEC50 M2 (converted); for Emax: CHO, read-out: % Emax cf. ACh (M2), CHO cells stably expressing human M2, relative to ACh. The method in brief:
as §1

In assay [3] the target is T3, human muscarinic M3 receptor (Homo sapiens, UniProt P20309).
T3 construct: expressed in transfected cells
T3 sequence (P20309 whole entry): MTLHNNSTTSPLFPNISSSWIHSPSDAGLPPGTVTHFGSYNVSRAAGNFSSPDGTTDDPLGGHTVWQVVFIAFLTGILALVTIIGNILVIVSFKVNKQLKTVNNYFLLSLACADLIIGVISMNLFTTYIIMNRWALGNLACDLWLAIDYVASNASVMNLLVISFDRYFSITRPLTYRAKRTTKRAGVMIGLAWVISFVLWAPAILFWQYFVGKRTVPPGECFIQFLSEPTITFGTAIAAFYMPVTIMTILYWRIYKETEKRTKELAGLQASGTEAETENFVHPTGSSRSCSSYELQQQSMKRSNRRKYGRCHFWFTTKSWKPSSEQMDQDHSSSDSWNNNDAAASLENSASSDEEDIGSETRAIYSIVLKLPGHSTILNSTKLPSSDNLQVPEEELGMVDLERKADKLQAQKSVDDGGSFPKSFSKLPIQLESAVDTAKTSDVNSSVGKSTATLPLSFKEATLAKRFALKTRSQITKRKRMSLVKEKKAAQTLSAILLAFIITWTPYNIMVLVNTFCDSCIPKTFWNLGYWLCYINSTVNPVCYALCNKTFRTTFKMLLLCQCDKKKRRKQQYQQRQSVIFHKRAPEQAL
Description: Alphascreen Surefire phospho-ERK1/2 functional assay, M3. It is filed as cell-based. The conditions noted are these: phospho-ERK1/2; for EC50: CHO cells stably expressing human M3, read-out: pEC50 M3 (converted); for Emax: CHO, read-out: % Emax cf. ACh (M3), CHO cells stably expressing human M3, relative to ACh. The method in brief: as §1

The target in assay [4] is T4, human muscarinic M4 receptor (Homo sapiens, UniProt P08173).
T4 construct: expressed in transfected cells
T4 sequence (P08173 1-479): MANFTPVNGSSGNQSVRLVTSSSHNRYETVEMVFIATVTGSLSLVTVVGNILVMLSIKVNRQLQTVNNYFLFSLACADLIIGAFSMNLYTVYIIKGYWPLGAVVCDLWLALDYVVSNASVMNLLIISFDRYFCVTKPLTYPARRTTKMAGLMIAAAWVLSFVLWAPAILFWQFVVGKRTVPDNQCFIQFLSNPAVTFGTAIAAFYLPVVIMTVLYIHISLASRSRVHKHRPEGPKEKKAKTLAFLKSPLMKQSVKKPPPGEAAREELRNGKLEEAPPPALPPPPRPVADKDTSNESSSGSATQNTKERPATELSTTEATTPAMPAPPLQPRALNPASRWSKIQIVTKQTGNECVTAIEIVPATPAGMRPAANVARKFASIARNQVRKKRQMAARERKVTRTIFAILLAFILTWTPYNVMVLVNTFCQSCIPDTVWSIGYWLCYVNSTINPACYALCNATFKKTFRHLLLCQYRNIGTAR
Description: Alphascreen Surefire phospho-ERK1/2 functional assay, M4. It is filed as cell-based. The conditions noted are these: phospho-ERK1/2; for EC50 / % Emax cf. ACh (M4): CHO cells stably expressing human M4; for EC50: read-out: pEC50 M4 (converted); for Emax: CHO, read-out: % Emax cf. ACh (M4), CHO cells stably expressing human M4; for Emax / % Emax cf. ACh (M4): relative to ACh.

Take `CCCCCCOc1nsnc1C1=CCCN(C)C1` [xanomeline]: the d-amphetamine induced hyperactivity result in the assay with rats is given as “significantly reduce”.
With `CCOC(=O)N1CCC2(CC(N3CCC(N(C(=O)C(F)(F)F)C4CC4)CC3)C2)C1` (single isomer, unassigned) [2-4 Isomer 2], the EC50 in assay [1] was 0.2 µM; in assay [2], > 20 µM; in assay [3] it was > 20 µM; in assay [4], 0.0316 µM. In addition, the Emax in assay [1] came to 104%; in assay [2] it was 3%; in assay [3], 9%; in assay [4] it was 114%.
Take `CCOC(=O)N1CCC2(CC(N3CCC(N(CC(C)C)C(C)=O)CC3)C2)C1` (single isomer, unassigned) [2-19 Isomer 2]: the EC50 in assay [1] was 0.1 µM; in assay [2], > 20 µM; in assay [3], > 20 µM; in assay [4] it was 0.0631 µM. In addition, the “% Emax cf. ACh (M1)” value in assay [1] was 115%. The Emax in assay [2] is 31%; in assay [3], 58%. Also, the “% Emax cf. ACh (M4)” value in assay [4] turned out to be 118%.
Take `CCOC(=O)N1CCC2(CC(N3CCC(C(C)n4cccn4)CC3)C2)C1` (single isomer, unassigned) [2-65 Isomer 2a]: the EC50 in assay [1] is 1 µM; in assay [2] it was > 20 µM; in assay [3], > 20 µM; in assay [4] it was 0.2 µM. Besides, the “% Emax cf. ACh (M1)” value in assay [1] was 43%. Also, the maximum response (Emax) in assay [2] and in assay [3] was 15% each time. Also, the “% Emax cf. ACh (M4)” value in assay [4] was determined as 45%.
As for `CCOC(=O)N1CCC2(CC(N3CCC(N(CC)CCC#N)CC3)C2)C1` (single isomer, unassigned) [2-55 Isomer 2], the EC50 in assay [1] is > 20 µM; in assay [2], > 20 µM; in assay [3], > 20 µM; in assay [4] it was 0.0251 µM. Further, the maximum response (Emax) came to 161% in assay [1], 15% in assay [2], 5% in assay [3] and 65% in assay [4].
Turning to `CCOC(=O)N1CCC2(CC(N3CCC(N(Cc4cnco4)CC(F)(F)F)CC3)C2)C1` (single isomer, unassigned) [2-62 Isomer 2], the EC50 was 1 µM in assay [1], > 20 µM in assay [2], > 20 µM in assay [3] and 0.02 µM in assay [4]. In addition, the Emax in assay [1] was found to be 85%; in assay [2], 12%; in assay [3], 11%; in assay [4] it was 106%.
Turning to `CCOC(=O)N1CCC2(CC(N3CCC(N(CC)OC)CC3)C2)C1` (single isomer, unassigned) [2-57 Isomer 2], the EC50 in assay [1] was 1 µM; in assay [2] it was > 20 µM; in assay [3], > 20 µM; in assay [4], 0.0398 µM. Also, the Emax was determined as 40% in assay [1], 11% in assay [2], 23% in assay [3] and 107% in assay [4].
Turning to `CCOC(=O)N1CCC2(CC(N3CCC(N(CC4CC4)C(C)=O)CC3)C2)C1` (single isomer, unassigned) [2-20 Isomer 2], in assay [1], the EC50 is 0.2 µM and the “% Emax cf. ACh (M1)” value came out at 113%. Also, in assay [2], the EC50 was > 20 µM and the Emax came out at 60%. In addition, in assay [3], the EC50 was > 20 µM and the Emax worked out at 33%. For the same compound, in assay [4], the EC50 is 0.0398 µM and the “% Emax cf. ACh (M4)” value worked out at 108%.
